From patent publication US4957864A, “Novel plasminogen activator and its preparation process” (Mitsui Toatsu Chemicals, Incorporated, priority 1982, dated 1990)
Where two headings read alike, the source gives them in different places.

Assays:
[1] = target: tissue activator obtained from human kidney (Homo sapiens, UniProt P00750); assay: biochemical; assay type: biochemical
[2] = target: T1, vascular plasminogen activator (Homo sapiens, UniProt P00750); assay: biochemical
T1 construct: from tissue; host or cells: blood vessel wall

[3] = system: anti-urokinase IgG; assay: affinity chromatography on anti-urokinase IgG-Sepharose column; assay type: binding, goat
Text: The employed urokinase sample was identical to that analyzed in accordance with the SDS-polyacrylamide gel electrophoresis.
The gel was washed with a 0.02M Tris-HCl solution of pH 7.4 containing 1.0M NaCl at least 20 times in volume that of the gel.

[4] = system: fibrin; conditions: M.W. 33,000 urokinase sample; cited from earlier work
[5] = system: fibrin; assay: fibrinolytic activity by the fibrin-agar plate method, compared with urokinase (UKIU); assay type: biochemical
Method: The fibrinolytic activity of the tissue activator was compared with that of urokinase and was expressed in terms of the international unit (UKIU). […] The activity of the tissue activator was determined by measuring the lytic areas of diluted samples within the range of 120-200 mm^2. […] The enzymatic activity of the tissue activator was standardized by the enzymatic activity of urokinase and the percentage recovery of the tissue activator and its specific activity relative to UKIU/ml were measured after each of several purification stages.
The non-specific fibrin-resolving activity was measured on a fibrin-agar plate free of plasminogen.

[6] = system: insolubilized fibrin monomer; assay: adsorption onto fibrin-Sepharose column; assay type: binding, human
[7] = isoelectric point by polyacrylamide gel isoelectric-point electrophoresis; assay type: physicochemical; conditions: 7.5% polyacrylamide gel, 8M urea, 1% ampholite
Method: The measurement of the isoelectric point of the purified tissue activator was carried out in a 7.5% polyacrylamide gel containing 8M urea and 1% ampholite in accordance with the method proposed by Mertz et al. [Biochem. Biophys. Res. Commun. 49, 84-91 (1972)]. The sample was solubilized in an 8M urea solution containing 2 mM EDTA and 1% ampholite. Its pH was determined by the method proposed by Finlayson et al. [Anal. Biochem. 40, 292-311 (1971)].

[8] = system: antivascular plasminogen activator serum; assay: double immunodiffusion with antivascular plasminogen activator and anti-urokinase serums; assay type: binding
Text: Using the antivascular plasminogen activator and anti-urokinase serums, the antigenicities of the both activators were studied in accordance with the double immunodiffusion method. As a result, both urokinase and the vascular plasminogen activator developed individually a single precipitation curve between themselves and their corresponding anti-urokinase or antivascular plasminogen activator serum.
In order to study whether the activators obtained respectively from kidney tissue and the wall of a blood vessel have the same antigenicity as urokinase, the elution profile of proteins and active ingredient of the activator obtained by the antiurokinase IgG-Sepharose affinity chromatographic treatment of the purified activator of Example 1-(6) and the activator of Example 1-(3) was compared with the elution profile of urokinase. […] The protein contained in the effluents was serum albumine incorporated in the commercially available urokinase used in this experiment. […] When the partially-purified sample obtained in Example 1-(3) was poured in the same column, about 15% of the poured activity was adsorbed on the column and eluted with the glycine solution of pH 2.4. […]

[9] = hydrolytic activity against fluorescent 4-methylcoumaryl-7-amide substrates; assay type: biochemical; conditions: 3093-V, 3095-V, 3096-V, 3097-V
Method: The thus-purified tissue activator was tested with various fluorescent substrates by adding 50 μl of the tissue activator sample in a 0.02M Tris-HCl solution of pH 8.0 containing 0.1M NaCl and 0.02% Tween 80 and 2.0 ml of the substrate in the same buffer solution. The following materials were used as the fluorescent substrates:
Boc-L-valyl-L-prolyl-L-arginine-4-methyl-coumaryl-7-amide;
Carbobenzoxy-L-phenylalanyl-L-arginine 4-methylcoumaryl-7-amide;
L-prolyl-L-phenylalanyl-L-arginine-4-methylcoumaryl-7-amide; and
Glutaryl-glycyl-L-arginine-4-methylcoumaryl-7-amide.
The initial release of 7-amino-4-methylcoumarine (AMC) was measured by a fluorometer at 37° C. in a Shimadzu Fluorospectrophotometer Model RF-520. The fluorometer had been set in such a manner that a radiation of a fluorescent light of 380 nm permitted to emit an excited fluorescent light of 460 nm, and also so adjusted that a 0.1% DMSO solution containing […] gave a relative fluorescent unit of 1.0. The hydrolytic activity of the purified tissue activator was measured using a chromogenic substrate, by adding 200 μl of a tissue activator sample, 200 μl of a 0.1M Tris-HCl solution of pH 8.0 containing 0.1M NaCl and 0.02% Tween 80, and 200 μl of a 3 mM S-2251 solution or a 1 mM S-2288 solution. The initial release of p-nitroaniline was measured by a spectrophotometer at 405 nm and 37° C. in a glass cell. […]

[10] = storage and pH stability of activity in buffer solution; assay type: physicochemical
Method: The same result was obtained even when 1M NH4 SCN or 0.02% Tween 80 and 0.1M NaCl were incorporated in the buffer solution.
The stability of the plasminogen activator of the present invention was investigated in the pH
hours in a buffer solution range of 1-10 at 4° C. for 24 containing 0.5M NaCl and 0.02% Tween 80.

[11] = hydrolytic activity against chromogenic substrate S-2288; assay type: biochemical; conditions: activator 100 UKIU/ml; 37° C., 405 nm
Method: (§1) The initial release of 7-amino-4-methylcoumarine (AMC) was measured by a fluorometer at 37° C. in a Shimadzu Fluorospectrophotometer Model RF-520. The fluorometer had been set in such a manner that a radiation of a fluorescent light of 380 nm permitted to emit an excited fluorescent light of 460 nm, and also so adjusted that a 0.1% DMSO solution containing […] gave a relative fluorescent unit of 1.0. The hydrolytic activity of the purified tissue activator was measured using a chromogenic substrate, by adding 200 μl of a tissue activator sample, 200 μl of a 0.1M Tris-HCl solution of pH 8.0 containing 0.1M NaCl and 0.02% Tween 80, and 200 μl of a 3 mM S-2251 solution or a 1 mM S-2288 solution. The initial release of p-nitroaniline was measured by a spectrophotometer at 405 nm and 37° C. in a glass cell. The initial velocity of the hydrolytic activity was expressed in terms of ΔmA/min for the chromogenic substrate and Δ%/min for the fluorescent substrate.
For tissue plasminogen activator, H-D-isoleucyl-L-prolyl-L-arginine-p-nitroanilide dihydrochloride (S-2288).

[12] = hydrolytic activity against chromogenic substrate S-2251; assay type: biochemical; conditions: activator 100 UKIU/ml; 37° C., 405 nm
Method: as §1
For plasmin, H-D-valyl-L-leucyl-L-lysine-p-nitroanilide dihydrochloride (S-2251);

[13] = Aprotinin 50 KIU/ml, iodoacetamide 10 mM, soybean trypsin 50 mg/ml, L-arginine 100 mM, diisopropyl fluorophosphate 5 mM, 37° C., 1 hour
[14] = diisopropyl fluorophosphate 5 mM, L-arginine 0.1M, Trasylol 50 KIU/ml, iodoacetamide 10 mM, soybean trypsin inhibitor 50 μg/ml

T1 sequence (P00750 36-562): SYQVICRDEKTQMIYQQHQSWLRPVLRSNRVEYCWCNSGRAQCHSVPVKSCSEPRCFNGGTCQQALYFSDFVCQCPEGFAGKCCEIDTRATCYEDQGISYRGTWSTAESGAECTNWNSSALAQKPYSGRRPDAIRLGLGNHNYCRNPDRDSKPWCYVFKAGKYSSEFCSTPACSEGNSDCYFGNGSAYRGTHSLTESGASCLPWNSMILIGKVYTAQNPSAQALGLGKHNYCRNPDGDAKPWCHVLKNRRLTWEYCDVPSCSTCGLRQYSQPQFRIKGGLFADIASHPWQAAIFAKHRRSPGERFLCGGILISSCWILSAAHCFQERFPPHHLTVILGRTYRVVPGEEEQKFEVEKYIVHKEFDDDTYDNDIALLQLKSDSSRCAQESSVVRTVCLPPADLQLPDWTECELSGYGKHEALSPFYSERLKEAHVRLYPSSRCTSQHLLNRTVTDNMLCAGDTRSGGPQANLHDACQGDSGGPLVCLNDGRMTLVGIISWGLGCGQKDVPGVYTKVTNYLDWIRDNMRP
tissue activator obtained from human kidney, sequence (P00750 36-562): as above

With `NC(=O)CI` [iodoacetamide] the “inhibition of amide-decomposing activity against S-2288” value (shortened to “inhibition … against S-2288”) [1, 13] was “not inhibited” and the “activity inhibition of the vascular plasminogen activator” value (“activity inhibition” for short) [2, 14] was “no changes”.

`N=C(N)NCCC[C@H](N)C(=O)O` [L-arginine] gave an inhibition at 100000 µM ([1]; read-out: inhibition of amide-decomposing activity against S-2288) of no more than 26% and an inhibition at 50 µg/mL ([2]; read-out: activity inhibition of the vascular plasminogen activator) of 20%.

In the case of Aprotinin [Trasylol], the “inhibition … against S-2288” value [1, 13] is reported as “not inhibited” and the “activity inhibition” value [2, 14] is reported as “no changes”.

In the case of urokinase [reference compound], the “adsorption / affinity for anti-urokinase IgG-Sepharose” value (“adsorption / affinity” below) [3] is listed as “adsorbed strongly”, the “specific activity of high-purity human urokinase used as immunogen” value [4] is listed as 202,400 IU/mg and the “lytic area on fibrin-agar plate” value ([5]; 10 μl of a 1 IU/ml solution) is listed as 156 mm^2. The “adsorption onto fibrin-Sepharose column” value [6] was “passed through the column”.

For “vascular plasminogen activator: purified plasminogen activator from human blood vessel walls; single-chain glycoprotein, molecular weight about 70,000”, the “isoelectric point (pI) of the main band” value [7] was 7.8, the “adsorption / affinity” value [3] was “did not show any affinity” and the Specific activity ([5]; Table 1, purification stages of tissue plasminogen activator from blood vessels) was 57,400 UKIU/mg. For the same molecule, the “specific activity of the final plasminogen activator” value ([5]; blood vessel derived, after final purification) was 45,000-80,000 IU/mg proteins and the “crosslinking of precipitation curves / with antiserum in immunodiffusion” value [8] was “no crosslinking was observed”.

In the case of “kidney-originated activator: purified tissue plasminogen activator obtained from human kidney in Example 1-(6); molecular weight about 72,000”, the “isoelectric point (pI) of the main band” value [7] is reported as 8.2, the “hydrolytic activity to substrates other than S-2251 and S-2288” value [9] is reported as “did not show hydrolytic activity” and the “adsorption / affinity” value [3] is reported as “passed through the column without adsorption”. For the same molecule, the “pH range in which the activator was stable” value ([10]; 4° C., 24 hours, buffer containing 0.5M NaCl and 0.02% Tween 80, pH 1-10 tested) was 2-10, the activity after storage ([10]; 4° C., buffer solution of pH 7.4, 2 weeks) was “did not give any activity reduction” and the reduction of activity ([10]; pH 1.0, 4° C., 24 hours, 0.5M NaCl and 0.02% Tween 80) was 70%. For the same molecule, the “hydrolytic activity against S-2288” value [11] was 70 ΔmA/min, the Specific activity ([5]; Table 2, purification stages of tissue plasminogen activator obtained from kidneys) was 25,700 UKIU/mg and the “specific activity relative to human kidney dried with acetone” value ([5]; highly purified form) was 30,000-45,000 times. For the same molecule, the “hydrolytic activity against S-2251” value [12] was 88 ΔmA/min, the “crosslinking of precipitation curves / with antiserum in immunodiffusion” value [8] was “ready crosslinking reaction” and the “adsorption onto fibrin-Sepharose column” value [6] was “adsorbed completely”. The “total poured activity recovered by elution with 2M NH4 SCN from fibrin-Sepharose” value [6] was “at least 90%”.

B1: soybean trypsin inhibitor: soybean trypsin inhibitor used as protease inhibitor (protein, UniProt P01070 25-205, looked up)
Trypsin inhibitor A: DFVLDNEGNPLENGGTYYILSDITAFGGIRAAPTGNERCPLTVVQSRNELDKGIGTIISSPYRIRFIAEGHPLSLKFDSFAVIMLCVGIPTEWSVVEDLPEGPAVKIGENKDAMDGWFRLERVSDDEFNNYKLVFCPQQAEDDKCGDIGISIDHDDGTRRLVVSKNKPLVVQFQKLDKESL
For B1, the “inhibition … against S-2288” value [1] was “not inhibited” and the “activity inhibition” value [2] was “no changes”.
